Experimental data from US8741965B2, “Method of administering a pheromone composition to an animal to modify the animals behavior over an extended period of time” (Sergeant's Pet Care Products, Inc., priority 2011, dated 2014).

How the values were obtained:
Type in all cases: in vivo, dog
adult anxious dogs = assay: Collars, heart rate and behavior in adult anxious dogs, Latin square, foghorn startle (Example 6)
Protocol: The objective of this study was to assess efficacy of pheromones/INTEROMONE® compositions to modulate heart rate and behavior in adult anxious dogs (trembling, cowering, shy). The dogs (8.1±0.18 kg; estimated 5-12 yr intact males) were obtained from a local research facility. Body weights and feed intake were recorded. Each dog was housed in a separately ventilated room with a minimum of 12 m^2 of floor space. Heart rate (HR) and surface temperature was measured using a telemetry system (Data Science International, St. Paul, Minn.). Behavior was recorded on a DVR and later reviewed by a trained individual. A scan sample was used with a recording interval of 5 min over 24 hours.
The dogs were treated with four different treatments on different days: Placebo collar (no Pheromone/INTEROMONE®), Pheromone only collar (Serg), Rabbit pheromone as INTEROMONE® collar (RP) (prepared in accordance with Example 1), and INTEROMONE® plus Pheromone collar (Serg+RP) (prepared in accordance with Example 3). At the end of 24 hours with a given collar, each dog was startled with a 110 db foghorn placed 12 cm from the dog's head while behavior and heart rate were recorded. Each dog received each treatment in a Latin square design with repeated measures over time. This model allowed evaluation of effects of treatment, dog, treatment by dog, time, treatment by time and dog by time.

dogs [1] = assay: Overall conclusions and meta-analysis across Studies 1-4
Protocol: Three delivery methods were examined (collar, spray, and room diffuser) and conclusions may be drawn about their efficacy. First, the pheromones were similar in efficacy when applied as a collar or spray. When used as a room diffuser, the pheromones/INTEROMONE® compositions had fewer significant effects compared with when they were delivered in collar or spray form. […] Meta-analyses were performed across studies to identify potential over-arching effects (FIGS. 18A and B). […] The reaction of most dogs to handling or startle was to go lay down; but the dogs exposed to rabbit INTEROMONE®were more likely to sit. Other than this general effect, each other finding must be considered within the context of the form of delivery (spray, collar or room diffuser) and the response of individual dog.

nervous dogs = assay: Example 11 Study 3: DAP spray versus RP spray with startle
Description: Eight dogs were obtained from a local contract research facility and assessment was made as to general dog health, behavior and heart rate. The dogs were estimated to be 2 to 7 years of age, mixed breed, and weighed averagely 8.1±0.18 kg at the start of the studies. […] Upon arrival each dog was bathed using shampoo containing flea and tick medicine (Hartz Mountain Corp. Secaucus, N.J. USA), and their body hair was shaved. Each dog was kept in a single room, which had 100% fresh air intake and exhaust. The dogs were fed twice (am and pm) per day ad libitum. At that time, the room was cleaned and the dogs obtained extra exercise. Water was available ad libitum.
Dog behavior was captured on video media at a sampling rate of 30 frames per second. Video records were reviewed in real time (with tape playing 30 frames per second). A scan sampling method was used to record dog behaviors each minute or each 5 minutes depending on the particular study. If the sample period was 120 minutes with four periods (0-30=0, 30-60=30, 60-90=60, and 90-120-90 min), then a scan sample was recorded each 1 minute. If the sample period was 24 hours, then the scan sample was collected each 5 minutes and summarized each hour. For example, pacing is when a dog walks in a stereotyped manner for minutes to hours. Because it was not easy to distinguish walking from pacing, the behaviors were merged. In addition, the video records could not clearly distinguish lying down and awake versus lying down and sleeping, therefore there was no separate description for these two behaviors.
Heart rate during the studies was measured by the use of a non-invasive telemetry system (Data Science International, St. Paul, Minn., USA). Leads were placed in contact with the dogs' shaved skin. Sensors measured heart rate, surface temperature and general activity. Data were transmitted to a receiving computer in another room. The sampling rate varied with the study, but was 5 seconds for the first two hours after treatments and then each 1 minute for 24 hours (depending on the particular study). For surface temperature measurements of the dog subjects, a thermistor was located against the skin of each dog. It recorded the surface temperature to the neared 0.1° C. on the same interval as the heart rate data.
Behavior and physiological data (heart rate and surface temperature) were analyzed by least squares analysis of variance using SAS (2011) software and the general linear models procedures. The experimental design of each study was a specialized randomized complete block in a Latin square design with data collected as a split plot over time. Dogs represented the blocks. Each dog received each treatment randomly in successive days or weeks. The statistical model included effects of treatment (TRT), dog, dog by treatment (TRT*DOG; error term used to assess treatment and dog effects), time (HR), treatment by time (TRT*HR), and residual error (SE; used to test remaining effects). Behavior data were collected and analyzed as counts per time period, but for clarity of presentation, the data are reported as percentage of time dogs engaged in each behavior.
In Study 1 and 2, the DAP was applied as a collar and the rabbit pheromone as a spray. To test if the physical form of the pheromone/INTEROMONE® impacted its efficacy, Study 3 examined the behavior and heart rate effects of Dog Appeasing Pheromone (DAP) and rabbit pheromone (RP) both applied as a spray after startle in order to obtain a direct comparison between sprays. Accordingly, Study 3 examined the relative effect of DAP spray (DAPS) and RP spray on the behavior and heart rate of the dog subjects. Both treatments were given to each dog in a random order. In this study, the Behavior data were collected from dogs 1-8 while heart rate data were collected from dogs 1-4.

dogs [2] = assay: Spray to face of dogs, heart rate for two hours (Example 10)
Protocol: A spray composition comprising rabbit pheromone as an INTEROMONE® was prepared in accordance with Example 9. Four dogs were fitted with cloth jackets that contained electrodes to measure their heart rate. One dog was sprayed with the 2-methylbut-2-enal composition, one dog was sprayed with a placebo, and two dogs were sprayed with pheromone-based products currently on the market for purposes of modifying behavior. […] Data were collected for two hours following application of the spray to the facial/snout region of the four dogs. The control period was indicated as time zero (“0”) on FIG. 1 and FIG. 2.

C/C=C(\C)C=O [RP, 2-methylbut-2-enal]
HR after startle (adult anxious dogs; collar 24 h, 110 db foghorn, placebo 157.8±7.2, P<0.01): 124.5±7.2 bpm | time pacing (adult anxious dogs; collar, placebo 3.8±0.02, P<0.05): 3.0±0.2% | time lying down (adult anxious dogs; collar, placebo 63.2±4.8, P=0.01): 87.4±5.4 % of time | effect on dog HR (summary) (adult anxious dogs; collars): lowered HR | behaviors in meta-analysis across studies (dogs [1]; Studies 1, 2 and 4, FIG. 18): Only dog sitting behavior was increased | overall effect on dog behavior and physiology (dogs [1]; collar, spray and room diffuser, all four studies): most consistent or largest effect on dog behavior and physiology | Defecate (nervous dogs; DAPS or RP spray with startle): 0.93 % of time | Drink (nervous dogs; DAPS or RP spray with startle): 0 % of time | Eat (nervous dogs; DAPS or RP spray with startle): 0 % of time | Lick self (nervous dogs; DAPS or RP spray with startle): 0 % of time | Lying down (nervous dogs; DAPS or RP spray with startle): 43.8 % of time | Pace-walk (nervous dogs; DAPS or RP spray with startle): 9.8 % of time | Sitting (nervous dogs; DAPS or RP spray with startle): 35.4 % of time | Standing (nervous dogs; DAPS or RP spray with startle): 3.7 % of time | Urinate (nervous dogs; DAPS or RP spray with startle): 0 % of time | sitting, main effect of treatment (nervous dogs; RP spray versus DAP spray, startle): tended to sit more (P=0.068) than DAP sprayed dogs | heart rate change relative to time zero (nervous dogs; spray and startle, dogs 1-4, FIG. 14B): generally unchanged over time, although were lower than baseline rate | lying down of individual dogs (nervous dogs; sprays, during startle, FIG. 13): Dog 3 showed increased lying down | pacing-walking and standing of individual dogs (nervous dogs; sprays, startle, FIGS. 11 and 12): dogs 1 and 4 had increased pacing-walking | reduction of average dog heart rate (dogs [2]; FIG. 1): 24.5 beats/min per hour | heart rate reduction over the two hour period (dogs [2]; compared to marketed products and placebo): 30%
